Our source for the IC50 values is patent US8367658B2, “Pyrazin-2-yl-pyridin-2-yl-amine and pyrazin-2-yl-pyrimidin-4-yl-amine compounds and their use” (Cancer Research Technology Limited, priority 2007, dated 2013).

The target of the test is T1, CHK1 (Homo sapiens, UniProt O14757).
T1 sequence (O14757 1-476): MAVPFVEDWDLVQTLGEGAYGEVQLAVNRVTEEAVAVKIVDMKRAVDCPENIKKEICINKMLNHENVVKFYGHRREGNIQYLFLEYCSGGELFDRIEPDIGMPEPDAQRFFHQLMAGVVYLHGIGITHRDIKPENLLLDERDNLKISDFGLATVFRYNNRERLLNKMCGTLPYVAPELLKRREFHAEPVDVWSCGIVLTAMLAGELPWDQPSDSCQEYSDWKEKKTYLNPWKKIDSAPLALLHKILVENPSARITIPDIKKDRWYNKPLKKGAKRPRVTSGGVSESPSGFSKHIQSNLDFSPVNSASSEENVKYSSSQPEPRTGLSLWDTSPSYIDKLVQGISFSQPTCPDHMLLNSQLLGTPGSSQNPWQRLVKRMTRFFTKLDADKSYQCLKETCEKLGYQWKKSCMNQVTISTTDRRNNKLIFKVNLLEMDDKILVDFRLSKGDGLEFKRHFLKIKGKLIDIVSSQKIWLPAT
Put plainly: CHK1 kinase function inhibition assay (DELFIA, phosphorylation of a CDC25C peptide). Particulars: CHK1 1 nM, ATP 30 μM, 30 minutes at room temperature. Format: biochemical. The method, boiled down: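 Phosphorylation of a CDC25C peptide detected by DELFIA with a phospho-specific antibody. Kinase reaction ran 30 min at room temperature, was stopped with EDTA buffer, then captured on neutravidin-coated plates for 1 h before time-resolved fluorescence read-out with enhancement solution.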

Regarding `COc1cccc(NC(=O)c2cnc(Nc3cnc(C#N)cn3)cc2NCC2CCNCC2)c1` [Compound Y-096, 6-(5-Cyanopyrazin-2-ylamino)-N-(3-methoxyphenyl)-4-(piperidin-4-ylmethylamino)nicotinamide], the IC50 was ≤ 100 nM.
The figure for `COc1ccccc1NC(=O)c1cnc(Nc2cnc(C#N)cn2)cc1NCC1CCNCC1` [Compound Y-097, 6-(5-Cyanopyrazin-2-ylamino)-N-(2-methoxyphenyl)-4-(piperidin-4-ylmethylamino)nicotinamide] is 100 to 1000 nM; for `N#Cc1cnc(Nc2cc(NCC3CCNCC3)c(C(=O)Nc3ccc(OCCN4CCOCC4)cc3)cn2)cn1` [Compound Y-098, 6-(5-Cyanopyrazin-2-ylamino)-N-(4-(2-morpholinoethoxy)phenyl)-4-(piperidin-4-ylmethylamino)nicotinamide] it is ≤ 100 nM.
The figure for `N#Cc1cnc(Nc2cc(NCC3CCNCC3)c(C(=O)Nc3cccc(N4CCOCC4)c3)cn2)cn1` [Compound Y-099, 6-(5-Cyanopyrazin-2-ylamino)-N-(3-morpholinophenyl)-4-(piperidin-4-ylmethylamino)nicotinamide] is ≤ 100 nM.
On to `N#Cc1cnc(Nc2cc(NCC3CCNCC3)c(C(=O)Nc3ccc(N4CCOCC4)cc3)cn2)cn1` [Compound Y-100, 6-(5-Cyanopyrazin-2-ylamino)-N-(4-morpholinophenyl)-4-(piperidin-4-ylmethylamino)nicotinamide], for which the half-maximal inhibitory concentration (IC50) was ≤ 100 nM.
Then `N#Cc1cnc(Nc2cc(NCC3CCNCC3)c(C(N)=O)cn2)cn1` [Compound Y-101, 6-(5-Cyanopyrazin-2-ylamino)-4-(piperidin-4-ylmethylamino)nicotinamide], with 100 to 1000 nM; and `N#Cc1cnc(Nc2cc(NCC3CNCCO3)c(C(=O)Nc3ccccc3)cn2)cn1` (stereo not drawn) [Compound Y-102, 6-(5-Cyanopyrazin-2-ylamino)-4-(morpholin-2-ylmethylamino)-N-phenylnicotinamide], with ≤ 100 nM; and `CN1CCC(Nc2cc(Nc3cnc(C#N)cn3)ncc2C(=O)Nc2ccccc2)CC1` [Compound Y-103, 6-(5-Cyanopyrazin-2-ylamino)-4-(1-methylpiperidin-4-ylamino)-N-phenylnicotinamide], with ≤ 100 nM.
The figure for `CN1CCC(Nc2cc(Nc3cnc(C#N)cn3)ncc2C(=O)O)CC1` [Compound Y-104, 6-(5-Cyanopyrazin-2-ylamino)-4-(1-methylpiperidin-4-ylamino)nicotinic acid] is 1000 to 10000 nM.
The figure for `COC(=O)c1cnc(Nc2cnc(C)cn2)cc1NC1CCN(C)CC1` [Compound Y-105, methyl 4-(1-methylpiperidin-4-ylamino)-6-(5-methylpyrazin-2-ylamino)nicotinate] is ≤ 100 nM; for `COC(=O)c1cnc(Nc2cnc(OC)cn2)cc1NCC1CNCCO1` (stereo not drawn) [Compound Y-106, Methyl 6-(5-methoxypyrazin-2-ylamino)-4-(morpholin-2-ylmethylamino)nicotinate] it is 100 to 1000 nM.
On to `CN1CCC(Nc2cc(Nc3cnc(C#N)cn3)ncc2Cl)CC1` [Compound Y-108, 5-(5-Chloro-4-(1-methylpiperidin-4-ylamino)pyridin-2-ylamino)pyrazine-2-carbonitrile], for which the IC50 was ≤ 100 nM.
The molecule `CN1CCC(N(C)c2cc(Nc3cnc(C#N)cn3)ncc2Cl)CC1` [Compound Y-109, 5-(5-Chloro-4-(methyl(1-methylpiperidin-4-yl)amino)pyridin-2-ylamino)pyrazine-2-carbonitrile] showed an IC50 of 100 to 1000 nM.
Then `CN1CCC(Nc2cc(Nc3cnc(C#N)cn3)ncc2Br)CC1` [Compound Y-110, 5-(5-Bromo-4-(1-methylpiperidin-4-ylamino)pyridin-2-ylamino)pyrazine-2-carbonitrile], with ≤ 100 nM.
Then `CN1CCC(Nc2cc(Nc3cnc(C#N)cn3)ncc2-c2ccccc2)CC1` [Compound Y-111, 5-(4-(1-Methylpiperidin-4-ylamino)-5-phenylpyridin-2-ylamino)pyrazine-2-carbonitrile], with ≤ 100 nM; and `CN1CCC(Nc2cc(Nc3cnc(C#N)cn3)ncc2-c2ccsc2)CC1` [Compound Y-112, 5-(4-(1-methylpiperidin-4-ylamino)-5-(thiophen-3-yl)pyridin-2-ylamino)pyrazine-2-carbonitrile], with ≤ 100 nM; and `CN1CCC(N(C)c2cc(Nc3cnc(C#N)cn3)ncc2-c2ccccc2)CC1` [Compound Y-113, 5-(4-(methyl(1-methylpiperidin-4-yl)amino)-5-phenylpyridin-2-ylamino)pyrazine-2-carbonitrile], with 100 to 1000 nM.
Then `COc1ccc(-c2cnc(Nc3cnc(C#N)cn3)cc2NC2CCN(C)CC2)cc1` [Compound Y-114, 5-(5-(4-methoxyphenyl)-4-(1-methylpiperidin-4-ylamino)pyridin-2-ylamino)pyrazine-2-carbonitrile], with ≤ 100 nM.
`COCc1cccc(-c2cnc(Nc3cnc(C#N)cn3)cc2NC2CCN(C)CC2)c1` [Compound Y-115, 5-(5-(3-(methoxymethyl)phenyl)-4-(1-methylpiperidin-4-ylamino)pyridin-2-ylamino)pyrazine-2-carbonitrile]: the IC50 was ≤ 100 nM.
Then `COc1cccc(-c2cnc(Nc3cnc(C#N)cn3)cc2NC2CCN(C)CC2)c1` [Compound Y-116, 5-(5-(3-Methoxyphenyl)-4-(1-methylpiperidin-4-ylamino)pyridin-2-ylamino)pyrazine-2-carbonitrile], with ≤ 100 nM; and `COCCOc1ccc(-c2cnc(Nc3cnc(C#N)cn3)cc2NC2CCN(C)CC2)cc1` [Compound Y-117, 5-(5-(4-(2-Methoxyethoxy)phenyl)-4-(1-methylpiperidin-4-ylamino)pyridin-2-ylamino)pyrazine-2-carbonitrile], with ≤ 100 nM.
With `COCCOc1cccc(-c2cnc(Nc3cnc(C#N)cn3)cc2NC2CCN(C)CC2)c1` [Compound Y-118, 5-(5-(3-(2-methoxyethoxy)phenyl)-4-(1-methylpiperidin-4-ylamino)pyridin-2-ylamino)pyrazine-2-carbonitrile], the IC50 was ≤ 100 nM.
Regarding `COCc1ccc(-c2cnc(Nc3cnc(C#N)cn3)cc2NC2CCN(C)CC2)cc1` [Compound Y-119, 5-(5-(4-(Methoxymethyl)phenyl)-4-(1-methylpiperidin-4-ylamino)pyridin-2-ylamino)pyrazine-2-carbonitrile], the IC50 was ≤ 100 nM.
`CN1CCC(Nc2cc(Nc3cnc(C#N)cn3)ncc2-c2ccc(N3CCOCC3)cc2)CC1` [Compound Y-120, 5-(4-(1-Methylpiperidin-4-ylamino)-5-(4-morpholinophenyl)pyridin-2-ylamino)pyrazine-2-carbonitrile]: the 50% inhibitory concentration (IC50) is ≤ 100 nM.
Then `Cc1ccccc1-c1cnc(Nc2cnc(C#N)cn2)cc1NC1CCN(C)CC1` [Compound Y-121, 5-(4-(1-Methylpiperidin-4-ylamino)-5-o-tolylpyridin-2-ylamino)pyrazine-2-carbonitrile], with 100 to 1000 nM.
For the molecule `COc1ccc(-c2cnc(Nc3cnc(C#N)cn3)cc2NC2CCNCC2)cc1` [Compound Y-122, 5-(5-(4-Methoxyphenyl)-4-(piperidin-4-ylamino)pyridin-2-ylamino)pyrazine-2-carbonitrile], the IC50 is ≤ 100 nM.
The figure for `COC/C=C/c1cnc(Nc2cnc(C#N)cn2)cc1NC1CCN(C)CC1` [Compound Y-123, (E)-5-(5-(3-methoxyprop-1-enyl)-4-(1-methylpiperidin-4-ylamino)pyridin-2-ylamino)pyrazine-2-carbonitrile] is ≤ 100 nM; for `N#Cc1cnc(Nc2cc(NCC3CCNCC3)c(Cl)cn2)cn1` [Compound Y-124, 5-(5-chloro-4-(piperidin-4-ylmethylamino)pyridin-2-ylamino)pyrazine-2-carbonitrile] it is ≤ 100 nM.
The figure for `COc1ccc(-c2cnc(Nc3cnc(C#N)cn3)cc2NCC2CCNCC2)cc1` [Compound Y-126, 5-(5-(4-Methoxyphenyl)-4-(piperidin-4-ylmethylamino)pyridin-2-ylamino)pyrazine-2-carbonitrile] is ≤ 100 nM; for `COCc1ccc(-c2cnc(Nc3cnc(C#N)cn3)cc2NCC2CCNCC2)cc1` [Compound Y-127, 5-(5-(4-(Methoxymethyl)phenyl)-4-(piperidin-4-ylmethylamino)pyridin-2-ylamino)pyrazine-2-carbonitrile] it is ≤ 100 nM; for `CCOC(=O)c1cc(-c2cnc(Nc3cnc(C#N)cn3)cc2NCC2CCNCC2)cs1` [Compound Y-128, Ethyl 4-(6-(5-cyanopyrazin-2-ylamino)-4-(piperidin-4-ylmethylamino)pyridin-3-yl)thiophene-2-carboxylate] it is ≤ 100 nM.
The figure for `N#Cc1cnc(Nc2cc(NCC3CCNCC3)c(-c3ccc(OCCO)cc3)cn2)cn1` [Compound Y-129, 5-(5-(4-(2-hydroxyethoxy)phenyl)-4-(piperidin-4-ylmethylamino)pyridin-2-ylamino)pyrazine-2-carbonitrile] is ≤ 100 nM.
Take `CS(=O)(=O)c1ccc(-c2cnc(Nc3cnc(C#N)cn3)cc2NCC2CCNCC2)cc1` [Compound Y-130, 5-(5-(4-(methylsulfonyl)phenyl)-4-(piperidin-4-ylmethylamino)pyridin-2-ylamino)pyrazine-2-carbonitrile]: the IC50 was ≤ 100 nM.
